The source of these data is US20210315992A1, “ADJUVANT EFFECT OF THE TLR1/2 AGONIST DIPROVOCIM SYNERGIZES WITH CHECKPOINT-INHIBITING ANTIBODIES TO ELIMINATE DISEASE” (The Board of Regents of the University of Texas System, priority 2018, published 2021).

Assay [1] deals with mouse peritoneal macrophages. Put plainly: TNF production by mouse peritoneal macrophages (ELISA). In kind it is cell-based. The conditions noted are these: Peritoneal macrophage, 4 hours, read-out: EC50, dose-dependent TNF production. The protocol:
Thioglycollate-elicited macrophages were recovered 4 days after i.p. injection of 2 ml BBL thioglycollate medium, brewer modified (4% wt/vol; BD Biosciences) by peritoneal lavage with 5 ml phosphate buffered saline (PBS). The peritoneal macrophages were cultured in DMEM cell culture medium [DMEM containing 10% vol/vol FBS (Gemini Bio Products), 1% vol/vol penicillin and streptomycin (Life Technologies)] at 37° C. and 95% air/5% CO2.
(§1) Cells were seeded onto 96-well plates at 1×10^5 cells per well and stimulated with a Diprovocim (dissolved in DMSO, and final DMSO concentrations (0.2%) were kept constant in all experiments) for 4 h. Mouse TNF, IL-6, or IFN-β, or human TNF in the supernatants were measured by ELISA kits according to the manufacturer's instructions (eBioscience and PBL Assay Science). Pretreatment with 20 μg/ml anti-TLR1, anti-TLR2 or isotype control antibody (eBioscience) was for 1 hour. Unless otherwise indicated, mouse cells were from wild type C57BL/6J mice.

Assay [2] deals with human THP-1 cells. Put plainly: TNF production by PMA-differentiated human THP-1 cells (ELISA). Type of assay: cell-based. The conditions noted are these: 4 hours. The protocol: For murine BMDCs, bone morrow cells were cultured in Petri dishes in 10 ml DMEM cell culture medium containing 10 ng/ml of murine GM-CSF (R&D Systems). On day 3 of culture, this was replaced with fresh GM-CSF medium. Loosely adherent cells were transferred to a fresh Petri dish and cultured for an additional 4 d. Human PBMC were purchased from Stemcell Technologies. THP-1 (ATCC) cells were differentiated by treatment with 100 nM PMA (Sigma) in RPMI cell culture medium [RPMI containing 10% vol/vol FBS (Gemini Bio Products), 1% penicillin and streptomycin (Life Technologies)] for 24 hours. After that, cells were washed with PBS and cultured in fresh RPMI cell culture medium for 24 hours before use in studies.
as §1

The subject of assay [3] is B16-OVA and B16F10 tumor cells. Briefly: Re-challenge of tumor-free survivors with B16-OVA and B16 cells. In kind it is in vivo, mouse. The following applies: survivors of Diprovocim+OVA plus anti-PD-L1, no further therapy.
Assay [4] deals with T1, mouse TLR1/TLR2 heterodimer (Mus musculus, UniProt Q9EPQ1+Q9QUN7).
T1 construct: endogenous in cells; host or cells: thioglycollate-elicited peritoneal macrophages of C57BL/6J mice (wild type and knockout/mutant genotypes)
T1 sequence (Q9EPQ1 26-795): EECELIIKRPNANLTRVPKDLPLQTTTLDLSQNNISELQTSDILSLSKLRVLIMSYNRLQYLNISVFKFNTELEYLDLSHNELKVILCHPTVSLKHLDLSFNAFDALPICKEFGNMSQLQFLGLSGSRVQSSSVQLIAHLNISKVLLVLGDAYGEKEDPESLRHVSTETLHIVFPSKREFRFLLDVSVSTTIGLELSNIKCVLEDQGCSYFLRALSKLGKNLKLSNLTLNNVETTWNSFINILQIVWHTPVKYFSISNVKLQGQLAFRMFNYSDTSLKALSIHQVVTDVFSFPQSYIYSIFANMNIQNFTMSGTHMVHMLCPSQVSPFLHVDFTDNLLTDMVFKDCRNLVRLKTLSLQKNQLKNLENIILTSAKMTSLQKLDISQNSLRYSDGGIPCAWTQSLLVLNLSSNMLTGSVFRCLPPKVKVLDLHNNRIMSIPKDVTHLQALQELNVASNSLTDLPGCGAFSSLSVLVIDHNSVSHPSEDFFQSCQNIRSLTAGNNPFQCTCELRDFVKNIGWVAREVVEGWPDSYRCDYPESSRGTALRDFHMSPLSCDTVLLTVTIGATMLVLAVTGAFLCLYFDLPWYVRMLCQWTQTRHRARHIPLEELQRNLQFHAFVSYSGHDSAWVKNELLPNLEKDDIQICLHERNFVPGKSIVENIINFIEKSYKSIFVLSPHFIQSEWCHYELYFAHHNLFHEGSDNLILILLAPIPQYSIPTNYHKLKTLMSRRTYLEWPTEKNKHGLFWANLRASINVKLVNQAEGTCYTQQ
T1 sequence (Q9QUN7 25-784): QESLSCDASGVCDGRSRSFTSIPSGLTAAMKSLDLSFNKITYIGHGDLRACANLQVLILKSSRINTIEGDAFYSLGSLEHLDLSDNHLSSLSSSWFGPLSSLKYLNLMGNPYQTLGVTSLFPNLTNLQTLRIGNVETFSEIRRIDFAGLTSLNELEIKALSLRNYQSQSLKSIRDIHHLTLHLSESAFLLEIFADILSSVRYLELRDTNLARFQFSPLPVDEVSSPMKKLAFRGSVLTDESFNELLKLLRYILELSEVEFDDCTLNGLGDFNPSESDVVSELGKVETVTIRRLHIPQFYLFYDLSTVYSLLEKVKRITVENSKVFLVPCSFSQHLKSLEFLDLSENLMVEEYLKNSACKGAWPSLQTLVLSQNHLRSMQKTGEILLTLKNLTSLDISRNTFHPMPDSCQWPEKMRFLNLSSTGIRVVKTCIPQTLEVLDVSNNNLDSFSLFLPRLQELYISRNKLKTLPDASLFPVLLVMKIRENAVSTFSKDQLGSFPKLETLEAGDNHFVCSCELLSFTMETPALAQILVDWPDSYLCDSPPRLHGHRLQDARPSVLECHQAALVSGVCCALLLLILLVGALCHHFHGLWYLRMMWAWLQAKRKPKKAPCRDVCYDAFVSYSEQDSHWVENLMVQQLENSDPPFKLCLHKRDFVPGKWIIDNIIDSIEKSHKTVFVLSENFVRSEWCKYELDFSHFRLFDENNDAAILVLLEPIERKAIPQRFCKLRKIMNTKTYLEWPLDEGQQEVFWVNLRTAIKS
Briefly: TNF induction in peritoneal macrophages from mice deficient in TLR signaling components. In kind it is cell-based. The following applies: 500 nM, 4 hours, vs C57BL/6J cells. The text has this: (§2) C57BL/6J, Tlr2^−/−, Myd88^−/− and OT-I mice were purchased from The Jackson Laboratory. Ly96^−/− (MD-2^−/−) mice were from RIKEN BRC. Tlr4^1ps3/lps3, Tlr6^int/int, Tlr7^rsql/rsql, Tirapt^tor/tor, Ticam1^Lps2/Lps2, Ticam1^Lps2/Lps2/Irak4^otiose/otiose mice were generated on a pure C57BL/6J background by ENU mutagenesis and are described at http://mutagenetix.utsouthwestern.edu.
(§3) Tlr1^−/− mice were created by CRISPR/Cas 9 gene targeting. Female C57BL/6J mice were superovulated by injection of 6.5 U pregnant mare serum gonadotropin (PMSG; Millipore), followed by injection of 6.5 U human chorionic gonadotropin (hCG; Sigma-Aldrich) 48 hours later. The superovulated mice were subsequently mated overnight with C57BL/6J male mice. The following day, fertilized eggs were collected from the oviducts and in vitro-transcribed Cas9 mRNA (50 ng/μl) and Tlr1 small base-pairing guide RNA (50 ng/μl; 5′-[…]-3′; SEQ ID NO: XX) were injected into the cytoplasm or pronucleus of the embryos. […]
(§4) Cells were seeded onto 96-well plates at 1×10^5 cells per well and stimulated with a Diprovocim (dissolved in DMSO, and final DMSO concentrations (0.2%) were kept constant in all experiments) for 4 h. Mouse TNF, IL-6, or IFN-β, or human TNF in the supernatants were measured by ELISA kits according to the manufacturer's instructions (eBioscience and PBL Assay Science). […]

For assay [5], the system named is mouse TLR1/TLR2 heterodimer. The description is as above. The following applies: 500 nM, 4 hours, vs C57BL/6J cells. Type of assay: cell-based.
Source text: as §2, §3, §4

Assay [6] has as its system B16-OVA melanoma. Briefly: Tumor-infiltrating leukocyte analysis in B16-OVA tumors (flow cytometry). In kind it is in vivo, mouse. The protocol: A total of 2×10^5 B16-OVA cells in 100 μL PBS were injected s.c. into the flank of each mouse to establish tumors (n=6 mice per treatment). 10 mg/kg Diprovocim-1 or 2 mg/kg alum with OVA (100 μg) was injected i.m. into mice on day 3 after tumor inoculation. Mice received a booster shot seven days after the first immunization. On day 3, 6, 9, and 12 after tumor inoculation, mice were also injected i.p. with 200 μg anti-mPD-L1.
On day 14 after tumor inoculation, tumors were harvested, minced and filtered through a 40-μm strainer to obtain single-cell suspensions. Red blood cells were lysed with RBC lysis buffer (Sigma). After pelleting, cells were stained with a mixture of antibodies for 45 minutes, including anti-mouse CD45.2-PE or CD45.2-APC (BioLegend), anti-mouse CD3-FITC (BD Biosciences), anti-mouse CD4-BV786 (BD Biosciences), anti-mouse CD8-BV510 (BioLegend), anti-mouse CD44-PE-CF594 (BioLegend), APC-conjugated H-2Kb/OVA (SIINFEKL; SEQ ID NO: XX) tetramer (Baylor College of Medicine), anti-mouse F4/80-PE (Tonbo Bioscience), anti-mouse CD11b-BV605 (BioLegend), anti-CD11c-BV711 (BD Biosciences), anti-NK1.1-BV650 (BD Biosciences). Then, the cells were washed twice with PBS. Stained cells were analyzed with an LSRII instrument (BD Biosciences) and the flow cytometry data were analyzed using FlowJo software.

Assay [7] relates to MAPK and canonical NF-κB signaling. Put plainly: Western blotting of THP-1 cell lysates. In kind it is cell-based, human. The conditions noted are these: THP-1 cells, 5 nM. The method, then:
Mouse peritoneal macrophages or human THP-1 cells (1×10^6 per well) were stimulated in 12-well plates with a Diprovocim at 500 nM for mouse cells or 5 nM for human cells for the indicated times and lysed directly in sample buffer (Sigma). Cell lysates were separated by SDS-PAGE and transferred to nitrocellulose membranes. Membranes were probed with the following antibodies: phospho-IKKα (Ser176)/IKKβ (Ser177), IκBα, phospho-p38 (Thr180/Tyr182), phospho-JNK (Thr183/Tyr185), phospho-ERK1/2 (Thr202/Tyr204) (Cell Signaling Technology) and β-Actin (Sigma).

Structures are written as SMILES. Entries after “also recorded” stand apart in the source; their conditions may differ.

As to `O=C(N[C@H]1C[C@@H]1c1ccccc1)[C@@H]1CN(C(=O)c2ccc(C(=O)N3C[C@@H](C(=O)N[C@H]4C[C@@H]4c4ccccc4)[C@H](C(=O)N[C@H]4C[C@@H]4c4ccccc4)C3)cc2)C[C@H]1C(=O)N[C@H]1C[C@@H]1c1ccccc1` [Diprovocim-1, (3S,3'S,4S,4'S)-1,1′-Terephthaloylbis(N^3,N^4-bis((1S,2R)-2-phenylcyclo-propyl)pyrrolidine-3,4-dicarboxamide)], the 50% effective concentration (EC50) in assay [1] was determined as 1.3 nM. Besides, the concentration giving a half-maximal response (EC50) in assay [2] (Homo sapiens, THP-1 cells, read-out: EC50, dose-dependent TNF production) turned out to be 0.11 nM. Moreover, the “activation of TNF production compared with Pam3CSK4” value in assay [2] (human THP-1 cells) was “more potent and efficacious; also recorded: more potent than Pam3CSK4”. Besides, the “memory response on tumor re-challenge” value in assay [3] is listed as “antigen-specific memory responses that protect the host from relapse of tumor growth”. In addition, in assay [4], the “activity (TNF) in macrophages from MyD88-, TIRAP-, and IRAK4-deficient cells” value is given as “dramatically reduced”. Also, the “induction of TNF in TLR1- or TLR2-deficient macrophages” value in assay [5] is reported as “completely absent”. Further, the “frequency of leukocytes (TILs) in tumors compared to vehicle+OVA” value in assay [6] (day 14, immunization day 3 and 10, plus anti-PD-L1) is recorded as “significantly increased”. In assay [6] (day 14, vs vehicle+OVA), the “frequency of NK cells in tumors” value is listed as “increased”; the “frequency of OVA-specific CD8 T cells in tumors” value is on record as “increased”; the “frequency of total and activated (CD44high) CD4 T cells in tumors” value is “increased”; the “frequency of total and activated (CD44high) CD8 T cells in tumors” value is on record as “increased”. Moreover, the “phosphorylation of signaling proteins and IκBα degradation” value in assay [7] is “induced phosphorylation of IκKα, IKKβ, p38, JNK, and ERK, as well as degradation of IκBα”.
